The subject of data set [1] is HDACs (HeLa cell nuclear extracts). Kind of data set: HDAC enzymatic activity, Biomol Color de Lys system. It is filed as biochemical. The note with it: 1 hour, 25° C. An outline of the steps: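 IC50 from sigmoidal fit of developer-terminated fluorescence (ex 350-380/em 440-460 nm). Reaction: 1 h at room temperature (25 °C), HeLa nuclear extract as HDAC source, artificial substrate, buffer of 50 mM Tris/Cl pH 8.0 with 137 mM NaCl, 2.7 mM KCl and 1 mM MgCl2.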

The next data set has as its target T1, PI3Kα (p110α/p85α) (Homo sapiens, UniProt P42336).
T1 construct: GST (N); made in house; host or cells: Baculovirus-infected Sf9 cells
As to the kind of experiment: PI3Kα ADP-Glo assay. The class given is biochemical. Conditions: 20 μM PIP2, 10 μM ATP, 30 minutes. An outline of the steps: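 Luminescent ADP-Glo detection, after depletion of residual ATP, quantified ADP made by PI3Kα phosphorylating 20 μM PIP2 at 10 μM ATP. The kinase step ran 30 min at room temperature in HEPES pH 7.4 with MgCl2, DTT and orthovanadate, using baculovirus/Sf9-expressed full-length p110α/p85α complex.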
(In general: In ADP-Glo the light output rises with the ADP produced.)

A further data set deals with MDA-MB-231. Kind of data set: Cell proliferation assay (CellTiter-Glo). It is filed as cell-based. The note with it: Homo sapiens, Breast, 72 hours, 0.5% fetal bovine serum, read-out: antiproliferative activity IC50, MDA-MB-231. On the procedure:
(§1) Cell Proliferation Assay:
(§2) Cancer cell lines were plated at 5,000 to 10,000 per well in 96-well flat bottomed plates with various concentration of compounds. The cells were incubated with compounds for 72 hours in the presence of 0.5% of fetal bovine serum. Growth inhibition was accessed by adenosine triphosphate (ATP) content assay using Promega CellTiter-Glo kit. Promega CellTiter-Glo kit is an ATP monitoring system based on firefly luciferase. Briefly, 16 μl of mammalian cell lysis and substrate solution was added to 84 μl of culture medium per well to lyse the cells and stabilize the ATP. The mixture was shaken and incubated for 30 minutes and subsequently the luminescence was measured.

Data set [2] deals with T2, mTor serine/threonine protein kinase (Homo sapiens, UniProt P42345).
T2 construct: FLAG; made in house; host or cells: Baculovirus expression system in Sf21 cells
Kind of data set: mTor kinase radioisotope assay. The class given is biochemical. The note with it: 70 uM ATP, 40 minutes; read-out: m-TOR IC50. How it is done: (F) an In Vitro Assay which-Determines the Ability of a Test Compound to Inhibit mTor Serine/Threonine Protein Kinase.
The ability of compounds to inhibit mTor activity was assayed using standard radioisotope assay for kinase. Briefly, FLAG-tagged, recombinant full-length human mTor (GenBank accession No. NM_004958) was expressed using baculovirus expression system in Sf21 cells and purified using antibody affinity column. Purified enzyme was incubated with c-terminal fragment of p70S6K as it's substrate in the presence of ATP. p33 ATP tracers were included in the assay to monitor the enzyme activity. Final assay condition was with 50 mM HEPES pH 7.5, 1 mM EGTA, 0.01% Tween 20, 2 mg/ml substrate, 3 mM Manganese Chloride and 70 uM of ATP and was carried out at room temperature for 40 minutes. The reaction was then stopped by the addition of 3% phosphoric acid solution. 10 ul of the reaction was spotted onto a P30 filtermat and washed three times for 5 minutes in 75 mM phosphoric acid and once in methanol prior to drying and scintillation counting. Different concentrations of compounds were added to reaction to assess the activity of compounds to inhibit mTor kinase. IC50 was calculated using Prism software with sigmoidal dose-response curve fitting.

Another data set relates to Calu6. Kind of data set: Cell proliferation assay (CellTiter-Glo). The class given is cell-based. Conditions: Homo sapiens, Calu-6; NSCLC; 72 hours, 0.5% fetal bovine serum; read-out: antiproliferative activity IC50, Calu6. How it is done: as §1, §2
For orientation: Cellular ATP, detected with luciferase, serves as a proxy for viable cell number.

The subject of a further data set is WiDr. As to the kind of experiment: Cell proliferation assay (CellTiter-Glo). It is filed as cell-based. Conditions: Homo sapiens, Colon, 72 hours, 0.5% fetal bovine serum, read-out: antiproliferative activity IC50, WiDr. On the procedure:
as §1, §2

Another data set has as its system HCT116. Kind of data set: Cell proliferation assay (CellTiter-Glo). The class given is cell-based. The note with it: Homo sapiens, HCT-116; Colon; 72 hours, 0.5% fetal bovine serum; read-out: antiproliferative activity IC50, HCT116. How it is done:
as §1, §2

In the next data set the test system is CaPan2. Kind of data set: Cell proliferation assay (CellTiter-Glo). The class given is cell-based. The note with it: Homo sapiens, Capan-2; Pancreas; 72 hours, 0.5% fetal bovine serum; read-out: antiproliferative activity IC50, CaPan2. How it is done: as §1, §2
Another data set concerns MiaPaca1. As to the kind of experiment: Cell proliferation assay (CellTiter-Glo). The class given is cell-based. Conditions: Pancreas; 72 hours, 0.5% fetal bovine serum; read-out: antiproliferative activity IC50, MiaPaca1. On the procedure: as §1, §2
Another data set relates to PANC-1. Kind of data set: Cell proliferation assay (CellTiter-Glo). The class given is cell-based. Conditions: Homo sapiens, Pancreas, 72 hours, 0.5% fetal bovine serum, read-out: antiproliferative activity IC50, PANC-1. On the procedure:
as §1, §2

A further data set has as its system SW1990. Kind of data set: Cell proliferation assay (CellTiter-Glo). The class given is cell-based. The note with it: Homo sapiens, Pancreas, 72 hours, 0.5% fetal bovine serum, read-out: antiproliferative activity IC50, SW1990. On the procedure:
as §1, §2

The test system of the next data set is CFPAC-1. Kind of data set: Cell proliferation assay (CellTiter-Glo). The class given is cell-based. The note with it: Homo sapiens, Pancreas, 72 hours, 0.5% fetal bovine serum, read-out: antiproliferative activity IC50, CFPAC-1. On the procedure: as §1, §2

T1 sequence (P42336 whole entry): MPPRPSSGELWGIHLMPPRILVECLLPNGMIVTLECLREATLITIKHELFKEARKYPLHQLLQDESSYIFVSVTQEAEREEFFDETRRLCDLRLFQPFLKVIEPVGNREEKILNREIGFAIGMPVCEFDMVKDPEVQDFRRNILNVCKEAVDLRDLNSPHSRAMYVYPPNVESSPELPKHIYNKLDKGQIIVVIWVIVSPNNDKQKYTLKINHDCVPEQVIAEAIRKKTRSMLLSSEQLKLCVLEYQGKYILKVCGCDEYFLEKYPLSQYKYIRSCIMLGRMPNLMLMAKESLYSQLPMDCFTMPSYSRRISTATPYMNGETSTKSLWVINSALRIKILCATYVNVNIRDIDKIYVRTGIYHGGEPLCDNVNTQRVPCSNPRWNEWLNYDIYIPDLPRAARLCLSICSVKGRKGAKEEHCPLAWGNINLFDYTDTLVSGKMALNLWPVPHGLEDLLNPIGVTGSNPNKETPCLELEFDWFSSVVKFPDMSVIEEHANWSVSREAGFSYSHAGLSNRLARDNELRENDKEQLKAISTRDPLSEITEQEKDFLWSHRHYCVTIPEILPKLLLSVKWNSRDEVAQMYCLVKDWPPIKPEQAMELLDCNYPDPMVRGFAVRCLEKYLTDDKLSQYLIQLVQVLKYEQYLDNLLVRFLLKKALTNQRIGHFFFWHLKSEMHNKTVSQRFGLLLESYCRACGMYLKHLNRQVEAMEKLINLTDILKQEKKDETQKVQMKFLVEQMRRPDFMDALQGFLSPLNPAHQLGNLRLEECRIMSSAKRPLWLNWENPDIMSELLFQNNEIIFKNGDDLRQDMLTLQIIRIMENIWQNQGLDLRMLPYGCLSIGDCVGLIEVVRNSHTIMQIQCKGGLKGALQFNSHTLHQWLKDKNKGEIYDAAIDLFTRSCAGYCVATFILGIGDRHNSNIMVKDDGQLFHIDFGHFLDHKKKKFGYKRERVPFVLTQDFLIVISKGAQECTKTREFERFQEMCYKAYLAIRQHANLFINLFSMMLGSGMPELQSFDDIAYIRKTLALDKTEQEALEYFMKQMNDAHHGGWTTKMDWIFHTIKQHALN
T1 sequence (P27986 whole entry partner): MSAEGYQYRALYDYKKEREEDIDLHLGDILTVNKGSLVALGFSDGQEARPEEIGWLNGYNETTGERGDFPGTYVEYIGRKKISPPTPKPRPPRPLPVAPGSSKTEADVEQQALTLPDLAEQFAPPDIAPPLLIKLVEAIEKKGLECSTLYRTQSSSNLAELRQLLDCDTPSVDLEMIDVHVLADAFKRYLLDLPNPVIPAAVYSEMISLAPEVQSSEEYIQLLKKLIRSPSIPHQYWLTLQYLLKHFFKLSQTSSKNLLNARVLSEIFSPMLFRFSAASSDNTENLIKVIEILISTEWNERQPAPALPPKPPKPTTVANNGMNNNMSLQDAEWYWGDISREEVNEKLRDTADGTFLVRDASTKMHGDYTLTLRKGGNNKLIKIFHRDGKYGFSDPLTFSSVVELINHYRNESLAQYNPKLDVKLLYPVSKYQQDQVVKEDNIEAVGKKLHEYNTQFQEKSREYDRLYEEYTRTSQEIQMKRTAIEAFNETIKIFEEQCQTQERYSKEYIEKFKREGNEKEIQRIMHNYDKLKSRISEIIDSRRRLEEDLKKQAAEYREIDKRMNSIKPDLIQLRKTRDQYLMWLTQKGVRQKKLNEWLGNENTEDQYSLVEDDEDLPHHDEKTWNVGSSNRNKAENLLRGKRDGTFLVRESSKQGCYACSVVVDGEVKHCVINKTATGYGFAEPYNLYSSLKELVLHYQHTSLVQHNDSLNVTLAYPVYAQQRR

The IC50 is the concentration that gives 50% inhibition. The melting point is the temperature of the solid-liquid transition. `COc1ncc(-c2nc(N3CCOCC3)c3sc(CN(C)c4ncc(C(=O)NO)cn4)cc3n2)cn1` [Compound 261, N-Hydroxy-2-(((2-(2-methoxypyrimidin-5-yl)-4-morpholinothieno[3,2-d]pyrimidin-6-yl)methyl)(methyl)amino)pyrimidine-5-carboxamide]: the melting point was 215 to 220 °C. The same compound yielded an IC50 in [1] of less than 0.1 µM. For the same compound, the IC50 against PI3Kα (p110α/p85α) was less than 0.1 µM. In the data set with MDA-MB-231, the half-inhibitory concentration (IC50) was in the range of 0.01 to 0.1 µM.
With `CN(Cc1cc2nc(-c3cccc(O)c3)nc(N3CCOCC3)c2s1)c1ncc(C(=O)NO)cn1` [Compound 132, N-hydroxy-2-(((2-(3-hydroxyphenyl)-4-morpholinothieno[3,2-d]pyrimidin-6-yl)methyl)(methyl)amino)pyrimidine-5-carboxamide], the melting point fell in the range of 175 to 181 °C. The same compound returned an IC50 in [1] of less than 0.1 µM. Also, on PI3Kα (p110α/p85α), the 50% inhibitory concentration (IC50) was less than 0.1 µM. Besides, the half-maximal inhibitory concentration (IC50) in data set [2] is less than 0.1 µM. The IC50 in the data set with Calu6 lay within 0.01 to 0.1 µM. Further, in the data set with MDA-MB-231, the IC50 fell in the range of 0.01 to 0.1 µM. Moreover, the concentration for half-maximal inhibition (IC50) in the data set with WiDr lay in the range of 0.1 to 1 µM.
Consider `Cc1nc(N)ncc1-c1nc(N2CCOCC2)c2sc(CN(C)c3ncc(C(=O)NO)cn3)cc2n1` [Compound 125, 2-(((2-(2-amino-4-methylpyrimidin-5-yl)-4-morpholinothieno[3,2-d]pyrimidin-6-yl)methyl)(methyl)amino)-N-hydroxypyrimidine-5-carboxamide], for which the melting point was in the range of 195 to 198 °C. Moreover, in data set [1], the IC50 was less than 0.1 µM. Moreover, the concentration for half-maximal inhibition (IC50) against PI3Kα (p110α/p85α) was less than 0.1 µM. For the same compound, the half-inhibitory concentration (IC50) in the data set on HCT116 lay in the range of 0.01 to 0.1 µM.
Take `Cc1nc2ccc(-c3nc(N4CCOCC4)c4sc(CN(C)c5ncc(C(=O)NO)cn5)cc4n3)cc2[nH]1` [Compound 199, N-hydroxy-2-(methyl((2-(2-methyl-3H-benzo[d]imidazol-5-yl)-4-morpholinothieno[3,2-d]pyrimidin-6-yl)methyl)amino)pyrimidine-5-carboxamide]: the melting point is 230 to 233 °C. For the same compound, in data set [1], the half-inhibitory concentration (IC50) is less than 0.1 µM. At PI3Kα (p110α/p85α), the half-maximal inhibitory concentration (IC50) was less than 0.1 µM. In the data set with CaPan2, the IC50 is 1 to 10 µM. Moreover, the IC50 in the data set on Calu6 was in the range of 0.1 to 1 µM. The half-inhibitory concentration (IC50) with MDA-MB-231 fell in the range of 0.01 to 0.1 µM. Further, the 50% inhibitory concentration (IC50) in the data set with MiaPaca1 was in the range of 0.01 to 0.1 µM. For the same compound, the IC50 in the data set on PANC-1 lay within 0.1 to 1 µM. Also, in the data set on SW1990, the IC50 fell in the range of 0.01 to 0.1 µM. Further, the concentration for half-maximal inhibition (IC50) in the data set with WiDr lay within 0.01 to 0.1 µM.
The compound `CN(Cc1cc2nc(-c3ccc4[nH]cnc4c3)nc(N3CCOCC3)c2s1)c1ncc(C(=O)NO)cn1` [Compound 187, 2-(((2-(1H-benzo[d]imidazol-5-yl)-4-morpholinothieno[3,2-d]pyrimidin-6-yl)methyl)(methyl)amino)-N-hydroxypyrimidine-5-carboxamide] showed a melting point of 231 to 239 °C. This compound registered a half-inhibitory concentration (IC50) in data set [1] of less than 0.1 µM. This compound showed a half-inhibitory concentration (IC50) against PI3Kα (p110α/p85α) of less than 0.1 µM. Moreover, the IC50 with CFPAC-1 is 0.1 to 1 µM. Moreover, the 50% inhibitory concentration (IC50) with CaPan2 was in the range of 0.1 to 1 µM. In the data set with Calu6, the IC50 fell in the range of 0.1 to 1 µM. For the same compound, the concentration for half-maximal inhibition (IC50) in the data set on MDA-MB-231 was in the range of 0.1 to 1 µM. For the same compound, in the data set with MiaPaca1, the concentration for half-maximal inhibition (IC50) lay in the range of 0.01 to 0.1 µM. Also, in the data set on PANC-1, the concentration for half-maximal inhibition (IC50) is 0.1 to 1 µM. Also, the half-maximal inhibitory concentration (IC50) in the data set on SW1990 fell in the range of 0.01 to 0.1 µM. Besides, in the data set on WiDr, the IC50 is 0.01 to 0.1 µM.
As to `CC(=O)Nc1ccc(-c2nc(N3CCOCC3)c3sc(CN(C)c4ncc(C(=O)NO)cn4)cc3n2)cn1` [Compound 112, 2-(((2-(6-acetamidopyridin-3-yl)-4-morpholinothieno[3,2-d]pyrimidin-6-yl)methyl)(methyl)amino)-N-hydroxypyrimidine-5-carboxamide], the melting point is 197 to 201 °C. The same compound returned a concentration for half-maximal inhibition (IC50) in data set [1] of less than 0.1 µM. In addition, at PI3Kα (p110α/p85α), the IC50 was less than 0.1 µM. Moreover, the half-maximal inhibitory concentration (IC50) with CFPAC-1 is 0.1 to 1 µM. Moreover, the IC50 in the data set on CaPan2 fell in the range of 0.1 to 1 µM. Moreover, the IC50 with Calu6 was in the range of 0.01 to 0.1 µM. Moreover, the IC50 in the data set with MDA-MB-231 lay within 0.01 to 0.1 µM. In the data set with MiaPaca1, the IC50 lay within 0.01 to 0.1 µM. Moreover, the 50% inhibitory concentration (IC50) with PANC-1 is 0.01 to 0.1 µM. For the same compound, the IC50 with SW1990 is 0.01 to 0.1 µM. Moreover, in the data set on WiDr, the IC50 fell in the range of 0.1 to 1 µM.
